Measured values from article PMC9518609, “Design and synthesis of new trimethoxylphenyl-linked combretastatin analogues loaded on diamond nanoparticles as a panel for ameliorated solubility and antiproliferative activity” (Journal of Enzyme Inhibition and Medicinal Chemistry, 2022).

System: p53
Experiment: ELISA measurement of p53 level in MDA-MB-231 cells
Type: cell-based
Settings: MDA-MB-231, at IC50, 24 h
Excerpt: p53, Bax, and Bcl-2 are key regulators of the apoptosis process to keep the balance between viable and dead normal cells. Deregulation of these proteins is a common feature responsible for uncontrolled cancer cell growth. In this test, the protein expression of apoptotic regulators was examined using ELISA analysis. […]
p53, Bax, and Bcl2 enzyme activities in MDA-MB-231 cells were investigated in the presence of compounds 6 and 12 at their IC50 concentration (µM). The levels of the tumour suppressor gene p53, apoptotic markers Bax as well as the anti-apoptotic marker Bcl-2 were assessed using the p53 ELISA kit, Human Bax ELISA kit, and Bcl-2 Elisa kit. The procedure of the used kits was done according to the manufacturer's instructions and was conducted as reported earlier. […]
4.3.4.2. Effect on p53, Bax and Bcl-2 p53, Bax and Bcl2 enzyme activities in MDA-MB-231 cells were detected in the presence of compounds 6 and 12 at their IC50 concentration (µM). The levels of the tumor suppressor gene p53, apoptotic markers Bax as well as the anti-apoptotic marker Bcl-2 were assessed using p53 ELISA kit, Human Bax ELISA kit and Bcl-2 Elisa kit. The procedure of the used kits was done according to the manufacturer's instructions. […] The samples were measured at 450 nm in ROBONEK P2000 ELISA reader. […]

Row | Compound | p53 level increase, fold change compared with no treatment control [fold]
1 | ethyl 2-(2-(6-oxo-5-(3,4,5-trimethoxybenzylidene)-3–(3,4,5-trimethoxyphenyl)-5,6-dihydro-1,2,4-triazin-2(1H)-yl)thiazol-4-yl)acetate [Compound 12] | 5.20
2 | COc1cc(C=C2N=C(c3cc(OC)c(OC)c(OC)c3)N(c3ccccc3)NC2=O)cc(OC)c1OC [Compound 6, 2-phenyl-5-(3,4,5-trimethoxybenzylidene)-3-(3,4,5-trimethoxyphenyl)-1,2-dihydro-1,2,4-triazin-6(5H)-one] | 11.96
